# Experiments:
# [1] = Real time in situ AFM step velocity measurements of L-cystine crystal growth with additive; conditions: for Vo/V (inverse of V/Vo): higher = more effective inhibition; for V/Vo (normalized velocity of step advancement): supersaturated L-cystine solution, lower = more effective inhibition
# Procedure: A Digital Instruments (Santa Barbara, Calif.) Nanoscope IIIa Multimode system is used for topographical and lattice imaging. All measurements are performed in contact mode using Veeco NP_B Si3N4 cantilever tips with a spring constant of 0.12 N/m (triangular, 196 μm length, 41 μm width) on a glass cantilever holder, and a liquid cell is created for in situ step velocity measurements. All L-cystine crystals for AFM measurements are prepared by the method described herein. Crystals are transferred onto an AFM specimen disk coated with partially cured (1 hr) UV-curable optical cement (Type SK-9, EMS Acquisition Corp.) by gently pressing the disk against hexagonal platelets or L-cystine needles isolated by filtration (Whatman Nuclepore membrane, 8 μm). The (0001) face of hexagonal platelets is exposed normal to the disk for AFM analysis with growth occurring along equivalent {1010} faces in the lateral directions, while the sides of L-cystine needles are exposed normal to the disc. The partially cured polymer with adhered crystals is completely cured by additional UV radiation (2 hrs) prior to analysis. Measurements of individual step heights for hexagonal L-cystine crystals are acquired in air (contact mode) at a scan rate of 1.00 Hz and 256 samples per line over a 15×15 μm^2 surface area. Integral and proportional gains are set to the highest possible values without obtaining feedback. Four hexagonal crystals (5 areas per crystal) are analyzed for statistical step height distributions, which are calculated from >10^3 individual steps. Lattice-resolved images of crystal surfaces are acquired in water (contact mode) using a scan rate of 112 Hz over a 12×12 nm^2 area.
# Real time in situ step velocity measurements of L-cystine growth are assessed along six structurally-equivalent {1010} faces of the hexagonal structure. A liquid cell is created with the glass cantilever tip holder, and working solutions are injected through a 1-mL syringe. Prior to injecting the growth medium (i.e. supersaturated L-cystine solution), crystals are etched with deionized water in the fluid cell for one hour to remove amorphous deposits or impurities that may be present on the surface. Supersaturated solutions (0.5 g/L) are generated by adding L-cystine to deionized water, boiling the solution on a heating mantle for 20 min to completely dissolve the solute, and allowing the solution to cool for 20 min on the heating mantle before transferring the solution (via syringe) to the AFM fluid cell. This method allows the solution to gradually cool to room temperature prior to AFM measurements in an effort to minimize premature nucleation of L-cystine in the growth solution.
# The effect of the compound of invention (additives) on crystal growth rates is investigated. Additives are combined with the supersaturated L-cystine following the 20 min cool down period (as discussed above) to avoid denaturing biological additives at higher temperature. A small volume (0.2 mL) of concentrated additive is mixed with 4.8 mL of L-cystine to generate 0.48 g/L L-cystine solutions with additives of varying concentrations. Control measurements without additive are performed in a similar manner, replacing concentrated additive solutions deionized water to maintain a constant L-cystine concentration. Data collection is started immediately after injecting the working solution into the AFM liquid cell. For each measurement, growth is first assessed in the absence of additive, then in the presence of additive on the identical area of the crystal surface to analyze relative changes in step velocity. Measurements are acquired at static conditions without refreshment of growth solution using supersaturated L-cystine solutions […] than the solubility of L-cystine in water, which is reported as 0.4-0.7 mM (pH 7, 25° C.). […] At static conditions, solute is depleted from solution during growth, leading to a slight decrease in the step velocity with increasing time. […]
# [2] = pH 7, 25° C.; cited from earlier work
SMILES,Vo/V (inverse of V/Vo) ([1]; additive 0.015 mM),V/Vo (normalized velocity of step advancement) ([1]; additive 0.015 mM),further results
"N[C@@H](CCCC[C@H](N)C(=O)O)C(=O)O [Compound 14, L-diaminooctanedioic acid]",1.03,0.97,
"CC(C)OC(=O)[C@@H](N)CSSC[C@H](N)C(=O)OC(C)C [Compound 6, L-cystine diisopropyl ester]",1.55,0.64,
"N[C@@H](CS)C(=O)O [Compound 17, L-cysteine, reference compound]",,,Vo/V (inverse of V/Vo) ([1]; additive 0.03 mM): 1; V/Vo (normalized velocity of step advancement) ([1]; additive 0.03 mM): 1
"N[C@@H](CSSC[C@H](N)C(=O)Oc1ccccc1)C(=O)Oc1ccccc1 [Compound 2, L-cystine diphenyl ester]",2.44,0.41,
"CCOC(=O)[C@@H](N)CSSC[C@H](N)C(=O)OCC [Compound 4, L-cystine diethyl ester]",1.79,0.56,
"COC(=O)[C@@H](N)CCSSCC[C@H](N)C(=O)OC [Compound 5, L-homocystine dimethyl ester]",1.59,0.63,
"COC(=O)[C@@H](N)CS [Compound 3, L-cysteine methyl ester]",,,Vo/V (inverse of V/Vo) ([1]; additive 0.03 mM): 2.05; V/Vo (normalized velocity of step advancement) ([1]; additive 0.03 mM): 0.49
"CC(C)(C)OC(=O)N[C@@H](CSSC[C@H](NC(=O)OC(C)(C)C)C(=O)O)C(=O)O [Compound 11, Nα,Nα′-di-Boc-L-cystine, reference compound]",,,Vo/V (inverse of V/Vo) ([1]; additive 0.09 mM): 1.23; V/Vo (normalized velocity of step advancement) ([1]; additive 0.09 mM): 0.81
"COC(=O)[C@@H](N)CCCC[C@H](N)C(=O)OC [Compound 12, L-dimethyl 2,7-diaminooctanedioate]",1.09,0.92,
"CC(S)C(=O)NCC(=O)O (centres unmarked) [Compound 9, N-(2-Mercapto-propionyl)glycine, reference compound]",,,Vo/V (inverse of V/Vo) ([1]; additive 0.03 mM): 1.35; V/Vo (normalized velocity of step advancement) ([1]; additive 0.03 mM): 0.74
"NCCSSCCN [Compound 16, cystamine]",1,1,
"COC(=O)[C@@H](N)C/C=C/C[C@H](N)C(=O)OC [Compound 10, L-dimethyl 2,7-diaminooct-4-enedioate]",1.23,0.81,
"CC(C)(C)OC(=O)[C@@H](N)CSSC[C@H](N)C(=O)OC(C)(C)C [Compound 8, L-cystine ditert-butyl ester]",1.43,0.7,
"COC(=O)[C@@H](N)CSSC[C@H](N)C(=O)OC [Compound 1, L-cystine dimethyl ester]",2.62,0.38,
"N[C@@H](CCSSCC[C@H](N)C(=O)O)C(=O)O [Compound 18, L-Homocystine, reference compound]",0.95,1.05,
"COC(=O)[C@@H](N)CSSC[C@H](N)C(=O)O [Compound 7, L-cystine methyl ester]",1.47,0.68,
"COC(=O)[C@@H](N)CO [Compound 19, L-serine methyl ester]",,,Vo/V (inverse of V/Vo) ([1]; additive 0.03 mM): 0.93; V/Vo (normalized velocity of step advancement) ([1]; additive 0.03 mM): 1.07
N[C@@H](CSSC[C@H](N)C(=O)O)C(=O)O [L-cystine],,,solubility of L-cystine in water [2]: 400 to 700 µM

# Reference: US10759748B2, “Compounds as L-cystine crystallization inhibitors and uses thereof” (NEW YORK UNIVERSITY, priority 2011, dated 2020)
